Experimental data reported in ChEMBL document CHEMBL1201862, “PubChem BioAssay data set” (2004).
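Five compound concentrations were applied to cells in 96-well plates for 48 hours; endpoints were derived by simple linear interpolation of the resulting dose-response curve. At the GI50, growth is halved.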 Active and inactive are the calls of the source. No stated cut-off is given here; in the data, active = GI50 up to about 1.1 µM and inactive = higher.

What was measured:
Assay in all cases: NCI anticancer screen, dose series, 48 h
SF-268 = system: SF-268
HL-60 = system: HL-60
K562 = system: K562
HCC 2998 = system: HCC 2998
SNB-19 = system: SNB-19
SK-MEL-28 = system: SK-MEL-28
HT-29 = system: HT-29
NCI-H522 = system: NCI-H522
NCI-H460 = system: NCI-H460
M14 = system: M14
UO-31 = system: UO-31
U-251 = system: U-251
IGROV-1 = system: IGROV-1
HOP-62 = system: HOP-62
A498 = system: A498
A549 = system: A549
RXF 393 = system: RXF 393
PC-3 = system: PC-3

Measured: GI50

COc1cc2c(oc(=O)c3cc4cc([Si](C)(C)C)oc4c(OC)c32)c2cccc(O)c12
inactive: SF-268 > 100 µM | HL-60 > 100 µM | K562 > 100 µM | HCC 2998 > 100 µM | SNB-19 > 100 µM | SK-MEL-28 > 100 µM | HT-29 > 100 µM | NCI-H522 > 100 µM | NCI-H460 > 100 µM | M14 > 100 µM | UO-31 > 100 µM | U-251 > 100 µM | IGROV-1 > 100 µM | HOP-62 > 100 µM | A498 78.9 µM | A549 > 100 µM | RXF 393 > 100 µM

COC(=O)[C@@H](O)[C@]1(C(=O)OC)C2O[C@@H](OC)[C@@H]1CCCCCC[C@H]2O
inactive: SF-268 > 100 µM | K562 > 100 µM | HCC 2998 > 100 µM | SNB-19 > 100 µM | SK-MEL-28 > 100 µM | HT-29 > 100 µM | PC-3 > 100 µM | NCI-H522 > 100 µM | NCI-H460 > 100 µM | M14 > 100 µM | UO-31 > 100 µM | U-251 > 100 µM | IGROV-1 > 100 µM | HOP-62 > 100 µM | A549 > 100 µM | RXF 393 > 100 µM

CCc1cccc(C)c1NC(=O)CCc1nnc2s/c(=C\c3cccc4ccccc34)c(=O)n12
inactive: SF-268 > 100 µM | HL-60 44.6 µM | K562 30.3 µM | HCC 2998 > 100 µM | SNB-19 > 100 µM | SK-MEL-28 > 100 µM | HT-29 > 100 µM | NCI-H522 > 100 µM | NCI-H460 > 100 µM | M14 45.6 µM | UO-31 > 100 µM | U-251 > 100 µM | IGROV-1 > 100 µM | HOP-62 > 100 µM | A498 > 100 µM | A549 > 100 µM | RXF 393 > 100 µM

CCSCN(C)c1nc(N(C)C)nc(N(C)C)n1
inactive: SF-268 > 100 µM | HL-60 29.9 µM | K562 46.8 µM | HCC 2998 > 100 µM | SNB-19 78 µM | SK-MEL-28 56.4 µM | HT-29 36.5 µM | NCI-H522 35 µM | NCI-H460 39.8 µM | M14 39.8 µM | UO-31 41.7 µM | U-251 54.2 µM | IGROV-1 78.7 µM | HOP-62 98.2 µM | A498 47.8 µM | A549 55.2 µM | RXF 393 14.2 µM
